Bounds are passed on as bounds.

Experimental findings from BindingDB's records for doi:10.1021/jm00128a026 (Roche Research Center, 1989) are described below.

The first experiment deals with Platelet-activating factor receptor (Canis lupus familiaris). In words: Inhibition of [3H]PAF binding to dog platelets.
In general, IC50 refers to the concentration that gives 50% inhibition. Low values mean greater potency in that assay, high ones weaker potency in that assay. With `CC[C@@H](CCCc1cccnc1)NC(=O)/C=C/C=C(c1ccc(OC)cc1)c1ccc(OC)cc1`, the 50% inhibitory concentration (IC50) amounted to 0.4 µM. The same measure, in the same setting: the value for `COc1ccc(C(=C/C=C/C(=O)NC(C)CCCc2cccnc2C)c2ccc(OC)cc2)cc1` (stereo unspecified) was 0.03 µM; that for `COc1cccc(/C(=C/C=C/C(=O)NCCCCc2cccnc2)c2cccc(F)c2)c1` was 0.04 µM.

`CC/C(=C\C=C\C(=O)N[C@H](C)CCCc1cccnc1)c1ccc(OC)cc1` registered a half-maximal inhibitory concentration (IC50) of 0.03 µM. The same measure, in the same setting: the value for `COc1ccc(/C(=C\C=C\C(=O)N[C@H](C)CCCc2cccnc2)c2ccccc2)cc1` was 0.004 µM; that for `COc1ccc(C(=C/C=C/C(=O)NCCOCc2cccnc2)c2ccc(OC)cc2)cc1` was 0.25 µM; that for `COc1ccc(/C(C)=C/C=C/C(=O)N[C@H](C)CCCc2cccnc2)cc1` was 0.025 µM. The same measure, in the same setting: next, `O=C(/C=C/C=C(c1ccc(Cl)cc1)c1ccc(Cl)cc1)NCCCCc1cccnc1`: 0.06 µM; `COc1ccc(/C(=C/C=C/C(=O)N[C@H](C)CCCc2cccnc2)C(C)C)cc1`: 0.04 µM; `CCCCCCCC/C(=C\C=C\C(=O)N[C@H](C)CCCc1cccnc1)c1ccc(OC)cc1`: 0.005 µM.

Compound `COc1cccc(C(=C/C=C/C(=O)N[C@@H](C)CCCc2cccnc2)c2cccc(OC)c2)c1` showed an IC50 of 0.3 µM.

For the next experiment the target is unchanged. Nature of the experiment: Inhibition of [3H]PAF binding to dog platelets. This is another data set of the same source.
`O=C(CCCCC=C(c1ccccc1)c1ccccc1)NCCCCc1cccnc1`: the IC50 worked out at 0.55 µM. The same measure, in the same setting: next, `Cc1ccc(C(=C/C=C/C(=O)N[C@H](C)CCCc2cccnc2)c2ccc(C)cc2)cc1`: 0.25 µM. With `O=C(/C=C/C=C(c1ccc(F)cc1)c1ccc(F)cc1)NCCCCc1cccnc1`, the 50% inhibitory concentration (IC50) was 0.04 µM. `COc1ccc(C(=C/C=C/C(=O)NC(C)(C)CCCc2cccnc2)c2ccc(OC)cc2)cc1` returned an IC50 of 0.085 µM. Turning to `COc1ccc(C(=C/C=C/C(=O)NCCCCc2cccnc2)c2ccc(OC)c(OC)c2)cc1OC`, the IC50 worked out at 0.055 µM. In turn, `O=C(CCC=C(c1ccccc1)c1ccccc1)NCCCCc1cccnc1` came in with an IC50 of 0.1 µM. Turning to `COc1ccc(/C(=C\C=C\C(=O)N[C@H](C)CCCc2cccnc2)C2CCCCC2)cc1`, the IC50 came out at 0.02 µM. Still for that read-out and setting: next, `COc1ccc(/C=C/C=C/C(=O)N[C@H](C)CCCc2cccnc2)cc1`: 0.03 µM; `CCCCC/C(=C/C=C/C(=O)N[C@H](C)CCCc1cccnc1)c1ccc(OC)cc1`: 0.01 µM; `COc1cccc(/C(=C\C=C\C(=O)NCCCCc2cccnc2)c2cccc(F)c2)c1`: 0.025 µM.

In the case of `CCC/C(=C\C=C\C(=O)N[C@H](C)CCCc1cccnc1)c1ccc(OC)cc1`, the 50% inhibitory concentration (IC50) amounted to 0.05 µM. On the same count and under the same terms, next, `O=C(C=C(c1ccccc1)c1ccccc1)NCCCCc1cccnc1`: 0.45 µM; `COc1ccc(C(=C/C=C/C(=O)N[C@@H](CCCc2cccnc2)C2CCCC2)c2ccc(OC)cc2)cc1`: over 1 µM; `COc1ccc(/C(=C/C=C/C(=O)N[C@H](C)CCCc2cccnc2)C2CCCCC2)cc1`: 0.02 µM. The same measure, in the same setting: the value for `COc1ccc(C(=C/C=C/C(=O)Nc2ccc(-c3cccnc3)cc2)c2ccc(OC)cc2)cc1` was 0.01 µM; that for `COc1ccccc1C(=C/C=C/C(=O)NCCCCc1cccnc1)c1ccccc1OC` was 0.04 µM.

With `COc1ccc(/C(=C/C=C/C(=O)N[C@H](C)CCCc2cccnc2)c2ccccc2)cc1`, the IC50 was 0.002 µM.

The compound `COc1ccc(C(=C/C=C/C(=O)Nc2ccc(Cc3cccnc3)cc2)c2ccc(OC)cc2)cc1` showed an IC50 of 0.25 µM. Still for that read-out and setting: the value for `COc1cccc(C(=C/C=C/C(=O)N[C@H](C)CCCc2cccnc2)c2cccc(OC)c2)c1` was 0.035 µM; that for `CC[C@H](CCCc1cccnc1)NC(=O)/C=C/C=C(c1ccc(OC)cc1)c1ccc(OC)cc1` was 0.12 µM.

As for `COc1ccc(C(=C/C=C/C(=O)NCCCCc2cccnc2)c2ccc(OC)cc2)cc1`, the IC50 is 0.025 µM. Still for that read-out and setting: next, `O=C(C/C=C/C=C(c1ccccc1)c1ccccc1)NCCCCc1cccnc1`: 0.055 µM; `COc1ccc(C(=C/C=C/C(=O)N[C@@H](CCCc2cccnc2)C2CC2)c2ccc(OC)cc2)cc1`: 0.06 µM; `CCCC[C@H](CCCc1cccnc1)NC(=O)/C=C/C=C(c1ccc(OC)cc1)c1ccc(OC)cc1`: over 1 µM.

For `O=C(/C=C\C=C(c1ccccc1)c1ccccc1)NCCCCc1cccnc1`, the IC50 amounted to 0.4 µM. The same measure, in the same setting: next, `O=C(/C=C/C=C(c1cccc(F)c1)c1cccc(F)c1)NCCCCc1cccnc1`: 0.02 µM; `CCCC/C(=C\C=C\C(=O)N[C@H](C)CCCc1cccnc1)c1ccc(OC)cc1`: 0.014 µM. The same measure, in the same setting: next, `CCC[C@H](CCCc1cccnc1)NC(=O)/C=C/C=C(c1ccc(OC)cc1)c1ccc(OC)cc1`: over 1 µM; `COc1ccc(C(=C/C=C/C(=O)N[C@H](C)CCCc2cccnc2)c2ccc(OC)c(OC)c2)cc1OC`: 0.05 µM. The compound `COc1cccc(C(=C/C=C/C(=O)NCCCCc2cccnc2)c2cccc(OC)c2)c1` displayed a concentration for half-maximal inhibition (IC50) of 0.002 µM.
